Experimental data published in ChEMBL document CHEMBL3046045, “Synthesis of 7-methoxyapigeninidin and its fungicidal activity against Gloeocercospora sorghi” (1996).
Calls of active or inactive are those of the source. No cut-off for these calls is given here.

Tests used:
Pyricularia oryzae [1] = assay: Antifungal activity against Magnaporthe oryzae assessed as inhibition of spore germination; assay type: functional
Pyricularia oryzae [2] = assay: Antifungal activity against Magnaporthe oryzae assessed as radial growth inhibition at 100 ppm; assay type: functional, organism-based
Microdochium sorghi [3] = assay: Antifungal activity against Gloeocercospora sorghi in potato dextrose agar medium assessed as inhibition of radial growth; assay type: functional
Pyricularia oryzae [4] = assay: Antifungal activity against Magnaporthe oryzae assessed as inhibition of spore germination at 100 ppm; assay type: functional, organism-based
Microdochium sorghi [5] = assay: Antifungal activity against Gloeocercospora sorghi in potato dextrose agar medium assessed as inhibition of radial growth at 100 ppm; assay type: functional

| SMILES | I50 (Pyricularia oryzae [1]) | inhibition (Pyricularia oryzae [2]) | I50 (Microdochium sorghi [3]) | inhibition (Pyricularia oryzae [4]) | inhibition at 100 ppm (Microdochium sorghi [5]) |
| --- | --- | --- | --- | --- | --- |
| COc1cc(O)c2ccc(-c3ccc(O)cc3)[o+]c2c1.[Cl-] [7-METHOXYAPIGENINIDIN] | 50 ppm | inactive | 50 ppm | – | – |
| Oc1ccc(-c2ccc3c(O)cc(O)cc3[o+]2)cc1 [APIGENIDIN] | – | inactive | – | inactive | 25% |
